Assay results reported in patent publication US9340510B2, “Tetrahydroisoquinoline derivatives, pharmaceutical compositions and uses thereof” (Boehringer Ingelheim International GmbH, priority 2014, dated 2016).
pIC50: −log10 of the molar value.

Target: human ACC2 (Homo sapiens (Human), UniProt O00763)
Experiment: ACC2 assay: spectrophotometric 384 well assay (coupled lactate dehydrogenase/pyruvate kinase)
Format: biochemical
Settings: hACC2 construct lacking the 128 N-terminal amino acids, 25° C., 340 nm
Procedure, shortened: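 N-terminally truncated human ACC2 from insect cells; ADP formation coupled via pyruvate kinase/lactate dehydrogenase, NADH loss read at 340 nm over 15 min at 25 °C, pH 7.5. Started with NADH, acetyl-CoA and 500 µM ATP; 1% DMSO. IC50 by nonlinear fit of background-subtracted slopes.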

Chain of human ACC2 (O00763 129-2458): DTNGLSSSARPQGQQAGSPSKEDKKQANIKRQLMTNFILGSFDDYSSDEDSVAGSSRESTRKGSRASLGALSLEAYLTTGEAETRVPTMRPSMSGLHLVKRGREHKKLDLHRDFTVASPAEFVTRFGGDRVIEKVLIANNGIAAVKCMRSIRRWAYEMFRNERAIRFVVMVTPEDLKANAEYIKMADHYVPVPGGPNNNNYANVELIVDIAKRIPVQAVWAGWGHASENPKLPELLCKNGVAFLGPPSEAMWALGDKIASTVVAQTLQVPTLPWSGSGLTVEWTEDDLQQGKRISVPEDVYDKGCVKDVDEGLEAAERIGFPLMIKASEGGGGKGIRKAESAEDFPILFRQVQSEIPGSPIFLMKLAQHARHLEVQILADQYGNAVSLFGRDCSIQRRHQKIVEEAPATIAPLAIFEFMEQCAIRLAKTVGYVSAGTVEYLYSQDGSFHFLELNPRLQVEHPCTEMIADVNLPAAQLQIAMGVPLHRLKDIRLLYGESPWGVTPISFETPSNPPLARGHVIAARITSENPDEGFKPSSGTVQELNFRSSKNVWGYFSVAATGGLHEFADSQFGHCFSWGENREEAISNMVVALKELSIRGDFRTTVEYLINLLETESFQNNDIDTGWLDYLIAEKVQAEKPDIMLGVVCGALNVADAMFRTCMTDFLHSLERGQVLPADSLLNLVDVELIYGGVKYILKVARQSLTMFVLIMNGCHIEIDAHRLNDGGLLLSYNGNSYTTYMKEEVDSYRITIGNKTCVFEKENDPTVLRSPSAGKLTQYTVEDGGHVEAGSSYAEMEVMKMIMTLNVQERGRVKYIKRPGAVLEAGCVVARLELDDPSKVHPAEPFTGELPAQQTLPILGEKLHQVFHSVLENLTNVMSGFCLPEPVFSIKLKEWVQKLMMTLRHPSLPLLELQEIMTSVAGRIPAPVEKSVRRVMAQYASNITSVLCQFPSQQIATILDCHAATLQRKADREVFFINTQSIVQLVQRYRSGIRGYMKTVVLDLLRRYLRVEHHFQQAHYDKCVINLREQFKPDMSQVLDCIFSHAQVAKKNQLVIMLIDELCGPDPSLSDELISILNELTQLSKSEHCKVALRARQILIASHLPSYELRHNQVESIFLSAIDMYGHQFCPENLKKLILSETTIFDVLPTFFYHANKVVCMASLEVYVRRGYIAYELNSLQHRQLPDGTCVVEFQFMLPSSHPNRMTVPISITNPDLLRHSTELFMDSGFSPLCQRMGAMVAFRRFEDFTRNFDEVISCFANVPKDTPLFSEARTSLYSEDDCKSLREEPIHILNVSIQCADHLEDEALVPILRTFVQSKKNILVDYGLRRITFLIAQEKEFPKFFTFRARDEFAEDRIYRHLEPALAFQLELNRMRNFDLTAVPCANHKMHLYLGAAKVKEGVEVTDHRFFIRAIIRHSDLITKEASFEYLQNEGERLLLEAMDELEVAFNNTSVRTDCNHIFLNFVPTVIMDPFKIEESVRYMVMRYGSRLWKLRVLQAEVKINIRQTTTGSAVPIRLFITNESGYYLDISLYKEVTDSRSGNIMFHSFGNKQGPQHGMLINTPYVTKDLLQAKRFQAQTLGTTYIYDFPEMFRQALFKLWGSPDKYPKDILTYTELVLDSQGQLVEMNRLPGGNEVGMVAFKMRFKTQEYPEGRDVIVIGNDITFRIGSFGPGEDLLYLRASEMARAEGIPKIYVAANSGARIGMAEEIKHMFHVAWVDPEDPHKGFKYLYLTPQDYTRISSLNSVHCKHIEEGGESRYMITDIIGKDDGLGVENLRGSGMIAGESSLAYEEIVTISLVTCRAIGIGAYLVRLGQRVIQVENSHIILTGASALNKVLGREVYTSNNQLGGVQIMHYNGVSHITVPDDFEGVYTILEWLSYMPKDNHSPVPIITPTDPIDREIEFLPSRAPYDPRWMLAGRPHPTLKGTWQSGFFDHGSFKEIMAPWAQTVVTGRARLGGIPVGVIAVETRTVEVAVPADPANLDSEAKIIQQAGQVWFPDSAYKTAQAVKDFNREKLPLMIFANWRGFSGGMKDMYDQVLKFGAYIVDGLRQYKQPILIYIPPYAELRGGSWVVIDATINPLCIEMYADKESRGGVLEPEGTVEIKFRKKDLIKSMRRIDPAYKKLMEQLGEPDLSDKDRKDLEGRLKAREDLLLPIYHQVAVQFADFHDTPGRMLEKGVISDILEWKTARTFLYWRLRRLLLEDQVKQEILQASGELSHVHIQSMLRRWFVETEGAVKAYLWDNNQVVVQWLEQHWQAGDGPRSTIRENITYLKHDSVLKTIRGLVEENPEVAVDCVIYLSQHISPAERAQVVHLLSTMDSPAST

Row | Structure (SMILES) | pIC50
1 | C[C@H](NC(=O)c1cn[nH]c1)c1ccc(CN2Cc3ccc(OCC4CC4)cc3C(F)C2)cc1 (some centres unmarked) [Example 3.064] | 7.28
2 | CC(=O)NC(C)c1ccc(CN2CCc3cc(OCC4CCC4)ccc3C2)cc1 (centres unmarked) [Example 1.011] | 7.17
3 | CC(=O)N[C@@H](C)c1ccc(CN2CCc3c(ccc(Cl)c3Cl)C2)cc1 [Example 1.078] | 7.17
4 | CCOc1ccc2c(c1)CCN(Cc1ccc([C@H](C)NC(=O)C3CC3)cc1)C2 [Example 1.043] | 6.74
5 | CC(=O)NC(C)c1ccc(CN2CCc3c(ccc(OCC4CC4)c3Cl)C2)cc1 (centres unmarked) [Example 1.026] | 7.37
6 | CC(=O)NC(C)c1ccc(CN2CCc3c(cccc3OCC3CC3(F)F)C2)cc1 (centres unmarked) [Example 1.008] | 6.31
7 | CCCOc1ccc2c(c1)CCN(Cc1ccc([C@H](C)NC(=O)C3CC3)cc1)C2 [Example 1.041] | 7.24
8 | CC(O)C(=O)N[C@@H](C)c1ccc(CN2CC(=O)c3cc(OCC4CC4)ccc3C2)cc1 (some centres unmarked) [Example 2.042] | 6.20
9 | CC(=O)Nc1nc(C)c(C(=O)N[C@@H](C)c2ccc(CN3CCc4c(cccc4C(F)(F)F)C3)cc2)s1 [Example 2.005] | 6.98
10 | COc1c(OCC2CC2)ccc2c1CCN(Cc1ccc([C@H](C)NC(=O)C3CC3)cc1)C2 [Example 1.048] | 6.86
11 | C[C@H](NC(=O)Cc1cncnc1)c1ccc(CN2Cc3ccc(OCC4CC4(F)F)cc3C(F)C2)cc1 (some centres unmarked) [Example 3.03] | 7.02
12 | CC(=O)NC(C)c1ccc(CN2CCc3cc(OC(F)(F)F)ccc3C2)cc1 (centres unmarked) [Example 1.007] | 6.54
13 | C[C@H](NC(=O)CC#N)c1ccc(CN2Cc3ccc(OCC4CC4)cc3C(O)C2)cc1 (some centres unmarked) [Example 3.051] | 6.22
14 | CC(=O)N[C@@H](C)c1ccc(CN2CCc3cc(OCC4CC4(F)F)ccc3C2)cc1 (some centres unmarked) [Example 7.003] | 7.59
15 | CC(=O)NC(C)c1ccc(CN2CCc3c(cccc3C(F)F)C2)cc1 (centres unmarked) [Example 1.027] | 6.16
16 | CC(=O)N[C@@H](C)c1ccc(CN2CCc3cc(Cl)ccc3C2)cc1 [Example 1.081] | 6.63
17 | CC(=O)NC(C)c1ccc(CN2CCc3cc(OCCC(F)(F)F)ccc3C2)cc1 (centres unmarked) [Example 1.014] | 7.02
18 | C[C@H](NC(=O)[C@@H]1CCC(=O)N1)c1ccc(CN2Cc3ccc(OCC4CC4)cc3C(F)C2)cc1 (some centres unmarked) [Example 3.052] | 6.82
19 | COc1c(OCCCF)ccc2c1CCN(Cc1ccc([C@H](C)NC(C)=O)cc1)C2 [Example 1.065] | 6.68
20 | COC(=O)N[C@@H](C)c1ccc(CN2Cc3ccc(OCC4CC4)cc3C(F)C2)cc1 (some centres unmarked) [Example 5.009] | 6.94
21 | CC(C)COc1ccc2c(c1)CCN(Cc1ccc([C@H](C)NC(=O)C3CC3)cc1)C2 [Example 2.019] | 7.24
22 | COC(=O)C1c2ccc(OCC3CC3)cc2CCN1Cc1ccc([C@H](C)NC(C)=O)cc1 (stereo partly drawn) [Example 9.000, 2-[4-((S)-1-Acetylamino-ethyl)-benzyl]-6-cyclopropylmethoxy-1,2,3,4-tetrahydro-isoquinoline-1-carboxylic acid methyl ester] | 6.72

Row | Structure (SMILES) | pIC50
23 | C[C@H](NC(=O)C1CCC1)c1ccc(CN2Cc3ccc(OCC4CC4)cc3C(O)C2)cc1 (some centres unmarked) [Example 3.041] | 6.31
24 | C[C@H](NC(=O)C1CC1)c1ccc(CN2CCc3cc(OCC4CC(F)(F)C4)ccc3C2)cc1 [Example 2.015] | 7.42
25 | COc1ccc2c(c1F)CCN(Cc1ccc([C@H](C)NC(C)=O)cc1)C2C (some centres unmarked) [Example 1.095] | 6.31
26 | C[C@H](NC(=O)C1CC1)c1ccc(CN2CCc3cc(OC4CCC4)ccc3C2)cc1 [Example 1.044] | 6.71
27 | C[C@H](NC(=O)c1ccno1)c1ccc(CN2CCc3cc(OCC4CC4(F)F)ccc3C2)cc1 (some centres unmarked) [Example 3.014] | 6.99
28 | CCNC(=O)N[C@@H](C)c1ccc(CN2CCc3cc(OCC4CC4(F)F)ccc3C2)cc1 (stereo partly drawn) [Example 5.001, 1-((S)-1-{4-[6-(2,2-Difluoro-cyclopropylmethoxy)-3,4-dihydro-1H-isoquinolin-2-ylmethyl]-phenyl}-ethyl)-3-ethyl-urea] | 7.12
29 | COc1ccc2c(c1Cl)CCN(Cc1ccc(C(C)NC(C)=O)cc1)C2 (centres unmarked) [Example 1.024] | 6.38
30 | CC(=O)NC(C)c1ccc(CN2CCc3c(ccc(OCCCF)c3Cl)C2)cc1 (centres unmarked) [Example 1.039] | 7.24
31 | C[C@H](NC(=O)c1cn[nH]c1)c1ccc(CN2CCc3c(cccc3C(F)(F)F)C2)cc1 [Example 2.008] | 7.00
32 | COc1c(OC(C)C)ccc2c1CCN(Cc1ccc([C@H](C)NC(C)=O)cc1)C2 [Example 1.069] | 6.38
33 | C[C@H](NC(=O)C1(C(F)(F)F)CC1)c1ccc(CN2CCc3cc(OCC4CC4(F)F)ccc3C2)cc1 (some centres unmarked) [Example 3.005] | 7.23
34 | Cc1nocc1C(=O)N[C@@H](C)c1ccc(CN2CCc3cc(OCC4CC4(F)F)ccc3C2)cc1 (some centres unmarked) [Example 3.020] | 7.48
35 | C[C@H](NC(=O)C1(C#N)CC1)c1ccc(CN2Cc3ccc(OCC4CC4)cc3C(F)C2)cc1 (some centres unmarked) [Example 3.044] | 7.21
36 | C[C@H](NC(=O)[C@H]1C[C@H](F)C1)c1ccc(CN2CCc3cc(OCC4CC4(F)F)ccc3C2)cc1 (some centres unmarked) [Example 3.022] | 7.55
37 | CC(=O)N[C@@H](C)c1ccc(CN2CCc3c(ccc(OCC4(C(F)(F)F)CC4)c3Cl)C2)cc1 [Example 1.062] | 7.26
38 | C[C@H](NC(=O)C1CC1)c1ccc(CN2Cc3ccc(OCC4CC4)cc3C(F)C2)cc1 (some centres unmarked) [Example 1.059] | 7.24
39 | C[C@H](NC(=O)N(C)C)c1ccc(CN2Cc3ccc(OCC4CC4(F)F)cc3C(F)C2)cc1 (some centres unmarked) [Example 5.004] | 7.77
40 | COc1c(OCC2CC2(F)F)ccc2c1CCN(Cc1ccc([C@H](C)NC(C)=O)cc1)C2C (some centres unmarked) [Example 1.084] | 6.58
41 | COc1cccc2c1CCN(Cc1ccc([C@H](C)NC(=O)c3sc(NC(C)=O)nc3C)cc1)C2 [Example 2.003] | 6.80
42 | COc1c(OCC2CC2)ccc2c1CCN(Cc1ccc([C@H](C)NC(C)=O)cc1)C2 [Example 1.076] | 7.17
43 | CC(=O)N[C@@H](C)c1ccc(CN2CCc3c(cccc3OC3CCC3)C2)cc1 [Example 7.005] | 7.24
44 | C[C@H](NC(=O)c1cnco1)c1ccc(CN2CCc3cc(OCC4CC4(F)F)ccc3C2)cc1 (some centres unmarked) [Example 3.009] | 7.23
